Test results: patent US11547681B2, “N-acylethanolamide derivatives and uses thereof” (ELIEM THERAPEUTICS, INC., priority 2016, dated 2023)
Entries after “also recorded” stand apart in the source; their conditions may differ.

Tests used:
[1] = tested on: Sprague Dawley rats, carrageenan-induced thermal hyperalgesia; assay: Carrageenan-induced inflammatory model, thermal hyperalgesia testing; assay type: in vivo, Sprague Dawley rat
Method: Sixty male Sprague Dawley rats were used in this study. Baseline thermal hyperalgesia thresholds were determined on day -1; animals were divided into 6 groups based on baseline thermal hyperalgesia thresholds. On day 0, animals received an oral dose of vehicle or I-16. Approximately 30 minutes after dosing the animals received an intra-plantar injection of 2% carrageenan solution. The animals were assessed for thermal hyperalgesia approximately 4 and approximately 24 hours after carrageenan injection.
Thermal hyperalgesia was assessed at baseline (prior to dosing with either vehicle or I-16), 4 hours, and 24 hours post-carrageenan injection.
Mean±SEM ipsilateral paw withdrawal latencies following carrageenan injection in vehicle and I-16 treated animals during the pharmacological assessment period (day 0).

[2] = Stability of PEA-prodrug in Sprague-Dawley rat plasma and acidified rat plasma (90 minutes, ice or RT); assay type: in vitro ADME; conditions: 1 μg/mL
Method: The stability of the PEA-prodrug I-9 was assessed in Sprague-Dawley rat plasma containing sodium heparin as the anticoagulant, and in acidified rat plasma containing citric acid and formic acid. The acidified plasma was prepared by collecting Sprague-Dawley rat […] over sodium heparin and adding 100 μL of 0.5 M citric acid per mL of blood. The blood was centrifuged to generate plasma, and then 100 μL of 10% formic acid was added per mL of plasma.
PEA-prodrug was added to each matrix to a final concentration of 1 μg/mL. Triplicate aliquots (50 μL) were immediately collected and added to 150 μL of acetonitrile containing internal standard. The remaining plasma aliquots were split equally. One aliquot was allowed to stand at room temperature while the second was placed on ice. After ninety minutes, triplicate aliquots of each sample were collected and added to acetonitrile. The samples were centrifuged at 13000 rpm for ten minutes, and the resulting supernatant was analyzed using the developed LC-MS/MS method. The peak area response ratios (PARR) of the analyte and internal standard from the incubated samples were then compared to the initial sample to determine the percent PEA prodrug remaining.

[3] = Simulated gastric fluid (SGF) stability, with and without pepsin; assay type: in vitro ADME; conditions: pH 1.2, 2 μM
Method: Studies were carried out in simulated gastric fluid (SGF). SGF was prepared by dissolving 2.0 g of NaCl and 3.2 g of purified pepsin (derived from porcine stomach mucosa) in 7 mL of 10 N HCl and sufficient water to make 1000 mL. The pH was adjusted to pH 1.2. Control experiments were also run without the addition of pepsin to the matrix. The test article was added into the SGF at 37° C. at a final concentration of 2 μM, and incubated in a shaking water bath at 37° C. Individual tubes were dosed for each time point (0, 15, 30, 60, and 120 minutes). At the appropriate time, 500 μL of ice-cold acetonitrile containing 0.1% formic acid and internal standard was added to a single tube. The starting time of each tube was staggered so that all timepoints finished simultaneously. The samples were then mixed and centrifuged. Calibration standards were prepared in matched matrix. […] Analytical conditions are outlined in Appendix 4-1.

[4] = Microsome/S9 fraction control (reaction mixture without microsomal proteins); assay type: in vitro ADME; conditions: for Concentration of analyte I-9: dosed I-9 2 μM
Method: As a control for the liver microsome and intestinal S9 fraction studies, additional experiments were run in reaction mixture, with the exclusion of microsomal proteins. The reaction mixture was prepared as described below. […] Individual tubes were dosed for each time point (0, 10, 20, 30, and 60 minutes). At the appropriate time, 500 μL of ice-cold acetonitrile containing 0.1% formic acid and internal standard was added to a single tube. The starting time of each tube was staggered so that all timepoints finished simultaneously. […] Calibration standards were prepared in matched matrix. […] Analytical conditions are outlined in Appendix 4-1.

[5] = PEA levels in New Zealand White rabbit plasma samples after oral administration; assay type: in vivo; conditions: individual rabbits; Group 3, 32 mg/kg/day; total PEA, ~5 h after morning dosing; listed as PEA-prodrug
Source text: The present Example describes PEA levels observed in rabbit plasma samples after oral administration of compound(s) provided herein. Blood samples were taken approximately five hours after the morning dosing.
Plasma samples from the current study were not treated to prolong the post-collection stability of the prodrug. Instead, all samples were allowed to stand, thawed and untreated, at room temperature for four hours prior to extraction and analysis. This strategy allowed for any remaining prodrug in the sample to convert to PEA. All reported concentrations are total PEA in the sample.
Seventy-nine New Zealand White rabbit plasma samples were analyzed with a previously developed LC-MS/MS method for the detection of palmitoylethanolamide (PEA). A total of 79 plasma samples were received for analysis. All samples were received frozen in good condition. Samples were stored at −80° C. until analysis.
An LC-MS/MS method for the determination of PEA in plasma was used to quantify samples in this study. See, e.g., Example 3. Study samples were extracted using the methods described in Examples 3-5.

[6] = Simulated gastric fluid (SGF) stability, with and without pepsin; assay type: in vitro ADME; conditions: for Concentration of analyte I-9: dosed I-9 2 μM
[7] = PEA levels in New Zealand White rabbit plasma samples after oral administration; assay type: in vivo; conditions: individual rabbits, predose

For `CCCCCCCCCCCCCCCC(=O)NCCOC(=O)CCC(=O)OC(COC(=O)CCC)COC(=O)CCC` [Compound I-16], the “effect on thermal hyperalgesia induced by carrageenan” value (shortened to “effect … by carrageenan”) ([1]; I-16 10.25 mg/kg PO (5 mg/kg equivalents of PEA), any time point (4 and 24 hours)) was “did not significantly reduce; also recorded: no significant effect”, the “effect … by carrageenan” value ([1]; I-16 20.50 mg/kg PO, 4-hour time point, 20.5 mg/kg) was “significantly reduced thermal hyperalgesia; also recorded: significantly reducing thermal hyperalgesia” and the “effect … by carrageenan” value ([1]; I-16 20.50 mg/kg PO, 24-hour time point) was “did not significantly reduce thermal hyperalgesia”. The “overall effect on thermal hyperalgesia” value ([1]; I-16 10.25 and 20.50 mg/kg PO) was “dose- and time-dependent reduction of thermal hyperalgesia”.
With `CCCCCCCCCCCCCCCC(=O)NCCOC(=O)CCC(=O)OCC(O)CO` (stereo not shown) [Compound I-9] the “% Remaining” value ([2]; acidified rat plasma (citric and formic acid), RT) was 96.0%, the “% Remaining” value ([2]; acidified rat plasma (citric and formic acid), ice) was 107% and the “% Remaining” value ([2]; rat plasma (sodium heparin), RT) was 0.203%. For the same compound, the “% Remaining” value ([2]; rat plasma (sodium heparin), ice) was 73.4%, the “% Remaining of Initial (n = 1)” value ([3]; SGF w/o pepsin, 30 min) was 84% and the “% Remaining of Initial (n = 1)” value ([3]; SGF w/o pepsin, 120 min) was 71%. The “% Remaining of Initial (n = 1)” value ([3]; SGF w/pepsin, 0 min) was 100%, the “% Remaining of Initial (n = 1)” value ([3]; SGF w/pepsin, 15 min) was 95% and the “% Remaining of Initial (n = 1)” value ([3]; SGF w/pepsin, 60 min) was 92%. The half-life at 2 μM ([3]; simulated gastric fluid without pepsin, SGF w/o pepsin) was greater than 2 h, the “Concentration of analyte I-9” value ([4]; 0 min) was 2240 nM and the “Concentration of analyte I-9” value ([4]; 10 min) was 1470 nM. For the same compound, the “Concentration of analyte I-9” value ([4]; 20 min) was 1720 nM, the “Concentration of analyte I-9” value ([4]; 30 min) was 1500 nM and the “Concentration of analyte I-9” value ([4]; 60 min) was 1380 nM. For the same compound, the half-life at 2 μM ([4]; microsome/S9 reaction mixture without microsomal proteins, no microsomal proteins, pH 7.4, 2 μM) was greater than 1 h, the “% Remaining of Initial (n = 1)” value ([4]; no microsomal proteins, pH 7.4, 2 μM, 0 min) was 100% and the “% Remaining of Initial (n = 1)” value ([4]; no microsomal proteins, pH 7.4, 2 μM, 10 min) was 66%. The “% Remaining of Initial (n = 1)” value ([4]; no microsomal proteins, pH 7.4, 2 μM, 20 min) was 77%, the “% Remaining of Initial (n = 1)” value ([4]; no microsomal proteins, pH 7.4, 2 μM, 30 min) was 67% and the “% Remaining of Initial (n = 1)” value ([4]; no microsomal proteins, pH 7.4, 2 μM, 60 min) was 62%. The “PEA concentration in plasma, Day 7” value [5] was “BLOQ (below the limit of quantitation (2.5 ng/mL))”, the “% Remaining of Initial (n = 1)” value ([6]; SGF w/o pepsin, pH 1.2, 2 μM, 0 min) was 100% and the “% Remaining of Initial (n = 1)” value ([6]; SGF w/o pepsin, pH 1.2, 2 μM, 15 min) was 93%. For the same compound, the “% Remaining of Initial (n = 1)” value ([6]; SGF w/o pepsin, pH 1.2, 2 μM, 60 min) was 72%, the “% Remaining of Initial (n = 1)” value ([6]; SGF w/pepsin, pH 1.2, 2 μM, 30 min) was 80% and the “% Remaining of Initial (n = 1)” value ([6]; SGF w/pepsin, pH 1.2, 2 μM, 120 min) was 86%. For the same compound, the “Concentration of analyte I-9” value ([6]; Matrix 'Human', 0 min) was 1520 nM, the “Concentration of analyte I-9” value ([6]; Matrix 'Human', head 10 min) was 1450 nM and the “Concentration of analyte I-9” value ([6]; Matrix 'Human', head 20 min) was 1210 nM. For the same compound, the “Concentration of analyte I-9” value ([6]; Matrix 'Human', head 30 min) was 1400 nM, the “Concentration of analyte I-9” value ([6]; Matrix 'Human', head 60 min) was 1310 nM and the “Concentration of analyte I-9” value ([6]; Matrix 'Rat', 0 min) was 2070 nM. The “Concentration of analyte I-9” value ([6]; Matrix 'Rat', head 10 min) was 1930 nM, the “Concentration of analyte I-9” value ([6]; Matrix 'Rat', head 20 min) was 1740 nM and the “Concentration of analyte I-9” value ([6]; Matrix 'Rat', head 30 min) was 1490 nM. The “Concentration of analyte I-9” value ([6]; Matrix 'Rat', head 60 min) was 1480 nM, the half-life at 2 μM ([6]; pig, simulated gastric fluid with pepsin, SGF w/pepsin, pH 1.2, 2 μM) was greater than 2 h and the “PEA concentration in plasma, Day −3” value ([7]; Group 3, 32 mg/kg/day) was “BLOQ (below the limit of quantitation (2.5 ng/mL))”. For the same compound, the “PEA concentration in plasma, Day −5” value ([7]; Group 3, 32 mg/kg/day) was “BLOQ (below the limit of quantitation (2.5 ng/mL))”, the “PEA concentration in plasma, Day −3” value ([7]; Group 4, 160 mg/kg/day) was “BLOQ (below the limit of quantitation (2.5 ng/mL))” and the “PEA concentration in plasma, Day −5” value ([7]; Group 4, 160 mg/kg/day) was “BLOQ (below the limit of quantitation (2.5 ng/mL))”.
